The target in test [1] is T1, pseudo-kinase domain (JH2, amino-acids 536-812) of human V617F mutant JAK2 (Homo sapiens, UniProt O60674, F794H/V617F/W659A/W777A).
T1 construct: pseudo-kinase domain (JH2, amino-acids 536-812 with 3 surface mutations W659A, W777A, F794H); His (C); purchased BPS Bioscience 79498; host or cells: baculovirus expression system
As to the kind of experiment: JAK2 LanthaScreen JH2-V617F Binding Assay. Conditions: JAK2 JH2-V617F 0.26 nM, 50 nM tracer, 1 hour at 25° C.; read-out: JH2 BIND V617F. The essentials: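 Competition of compounds with a fluorescent tracer (50 nM) for the biotinylated domain (0.26 nM), detected via streptavidin-Tb (0.25 nM) after 1 h at 25° C in pH 7.5 Tris buffer containing glycerol, BSA and Brij-35. ATP at 2 mM gave background. IC50 by four-parameter fit.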

Test [2] addresses catalytic domain (JH1, amino acids 808-1132) of human JAK2 (Homo sapiens, UniProt O60674). As to the kind of experiment: JAK2 HTRF Enzyme Activity Assay. Format: biochemical. Conditions: ATP 30 µM, 60 minutes at 25° C.; read-out: V617F ENZ 30 UM.
In test [3] the target is T2, pseudo-kinase domain (JH2, amino-acids 536-812) of human Wild Type JAK2 (Homo sapiens, UniProt O60674, F794H/W659A/W777A).
T2 construct: pseudo-kinase domain (JH2, amino-acids 536-812 with 3 surface mutations W659A, W777A, F794H); His (C); purchased BPS Bioscience 79463; host or cells: baculovirus expression system
T2 sequence (O60674 536-812 W659A/W777A/F794H): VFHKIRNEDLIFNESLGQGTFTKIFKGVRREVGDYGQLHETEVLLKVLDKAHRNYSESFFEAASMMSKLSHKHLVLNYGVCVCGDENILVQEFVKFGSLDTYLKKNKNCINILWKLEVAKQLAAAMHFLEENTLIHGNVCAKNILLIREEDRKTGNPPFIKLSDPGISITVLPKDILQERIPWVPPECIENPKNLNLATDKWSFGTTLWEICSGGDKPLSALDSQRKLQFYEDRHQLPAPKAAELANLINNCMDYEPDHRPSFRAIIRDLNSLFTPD
As to the kind of experiment: JAK2 LanthaScreen JH2-WT Binding Assay. Conditions: JAK2 JH2-WT 0.145 nM, 50 nM tracer, 1 hour at 25° C.; read-out: JH2 BIND WT. The essentials:
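Compounds, serially diluted, were mixed with 0.145 nM JH2 domain, 50 nM tracer and 0.25 nM streptavidin-Tb cryptate, then incubated 1 hour at 25° C before LanthaScreen reading. Wells containing 2 mM ATP defined non-specific binding. Four-parameter dose-response curves gave IC50.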

Test [4] deals with T3, catalytic domain (JH1, amino acids 826-1132) of human JAK2 (Homo sapiens, UniProt O60674).
T3 construct: catalytic domain (JH1, amino acids 826-1132) of human JAK2; FLAG (N); biotin (biotinylated); purchased Carna Biosciences 08-445-20N; host or cells: baculovirus expression system
T3 sequence (O60674 826-1132): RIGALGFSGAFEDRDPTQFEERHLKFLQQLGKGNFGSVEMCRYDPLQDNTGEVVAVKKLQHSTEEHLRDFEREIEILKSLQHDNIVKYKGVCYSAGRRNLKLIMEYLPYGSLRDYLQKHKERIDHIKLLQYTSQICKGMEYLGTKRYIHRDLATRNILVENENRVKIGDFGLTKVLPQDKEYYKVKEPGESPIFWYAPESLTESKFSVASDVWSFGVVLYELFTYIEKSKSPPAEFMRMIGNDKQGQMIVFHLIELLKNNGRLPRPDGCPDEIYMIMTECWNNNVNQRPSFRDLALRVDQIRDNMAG
Nature of the test: JAK2 LanthaScreen JH1 Binding Assay. Conditions: JAK2 JH1 1.5 nM, 50 nM tracer, 2 hours at 25° C.; read-out: JH1 BIND. Put shortly:
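FLAG-tagged, biotinylated JAK2 JH1 (aa 826-1132, baculovirus-expressed; 1.5 nM) incubated 2 h at 25° C with compounds, 50 nM fluorescent tracer and 0.5 nM Streptavidin-Tb in Tris pH 7.5 buffer with MgCl2, Brij-35, BSA, EGTA, glycerol, DTT. Nonspecific binding defined with 2 mM ATP; TR-FRET IC50 from four-parameter fit.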

The values that follow come from patent publication US20240317744A1, “Bicyclic Ureas As Kinase Inhibitors” (Incyte Corporation, priority 2023, published 2024).

T1 sequence (O60674 536-812 V617F/W659A/W777A/F794H): as the sequence (O60674 536-812 W659A/W777A/F794H) above, with V82F counted along it
Sequence of catalytic domain (JH1, amino acids 808-1132) of human JAK2 (O60674 808-1132 limits assumed): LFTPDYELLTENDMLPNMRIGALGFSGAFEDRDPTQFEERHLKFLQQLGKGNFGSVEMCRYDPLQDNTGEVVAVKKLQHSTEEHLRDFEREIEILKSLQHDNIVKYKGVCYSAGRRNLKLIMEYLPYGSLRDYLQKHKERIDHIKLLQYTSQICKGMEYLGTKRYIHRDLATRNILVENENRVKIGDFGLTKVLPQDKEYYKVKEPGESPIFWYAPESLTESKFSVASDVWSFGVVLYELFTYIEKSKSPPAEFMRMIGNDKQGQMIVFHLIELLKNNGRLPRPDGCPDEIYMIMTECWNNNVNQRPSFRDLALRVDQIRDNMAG

Take `[2H]C([2H])([2H])n1c(=O)n([C@H]2C[C@H](C(C)(C)O)C2)c2cc(Nc3cc(-c4cnccc4C(F)(F)F)c4nc(C)c(-c5cnn(C(F)F)c5)n4n3)ncc21` [Example 106, 6-((3-(1-(Difluoromethyl)-1H-pyrazol-4-yl)-2-methyl-8-(4-(trifluoromethyl)pyridin-3-yl)imidazo[1,2-b]pyridazin-6-yl)amino)-1-((1r,3r)-3-(2-hydroxypropan-2-yl)cyclobutyl)-3-(methyl-d3)-1,3-dihydro-2H-imidazo[4,5-c]pyridin-2-one]: the IC50 is not above 10 nM in test [1], more than 1000 nM in test [2], not above 10 nM in test [3] and more than 1000 nM in test [4].
On to `COC(=O)Nc1cc(Nc2cc3c(cn2)n(C)c(=O)n3C2CC3(CC(NS(=O)(=O)C4CC4)C3)C2)cc(-c2cnn(C)c2)c1` (stereo not drawn) [Example 26, Methyl (3-((1-(6-(cyclopropanesulfonamido)spiro[3.3]heptan-2-yl)-3-methyl-2-oxo-2,3-dihydro-1H-imidazo[4,5-c]pyridin-6-yl)amino)-5-(1-methyl-1H-pyrazol-4-yl)phenyl)carbamate], for which the IC50 is 10 to 100 nM in test [1], more than 1000 nM in test [2], 10 to 100 nM in test [3] and more than 1000 nM in test [4].
Regarding `COC(=O)N[C@@H]1CC[C@@H](n2c(=O)n(C)c3cnc(Nc4cccc(-c5ccc6c(c5)OCCO6)n4)cc32)C1` [Example 8, Methyl ((1R,3R)-3-(6-((6-(2,3-dihydrobenzo[b][1,4]dioxin-6-yl)pyridin-2-yl)amino)-3-methyl-2-oxo-2,3-dihydro-1H-imidazo[4,5-c]pyridin-1-yl)cyclopentyl)carbamate], the IC50 in test [1] is not above 10 nM; in test [2], more than 1000 nM; in test [3], not above 10 nM; in test [4] it was more than 1000 nM.
